# Toxic doses and inconclusive results are not listed.
# System: CD2F1 mice, L1210 leukemia ip, survival T/C
# Assay: NCI In Vivo Anticancer Drug Screen. Data for tumor model L1210 Leukemia (intraperitoneal) in CD2F1 (CDF1) mice
# Conditions: higher = longer survival
# Summary of the method: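 Antitumor effect is scored in animals hosting a serially transplanted tumor. Values compare compound-dosed animals against vehicle-only controls as a simple quotient.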
# [1] = endpoint: mean survival time, dose: 12.5 mg/kg/injection, schedule: Q01DX009 (ip), vehicle: other
# [2] = endpoint: mean survival time, dose: 25.0 mg/kg/injection, schedule: Q01DX009 (ip), vehicle: other
# [3] = endpoint: mean survival time, dose: 12.5 mg/kg/injection, schedule: Q04DX003 (ip), vehicle: saline
# [4] = endpoint: mean survival time, dose: 25.0 mg/kg/injection, schedule: Q04DX003 (ip), vehicle: saline
# [5] = endpoint: mean survival time, dose: 100.0 mg/kg/injection, schedule: Q01DX001 (ip), vehicle: saline with Tween-80
# [6] = endpoint: mean survival time, dose: 200.0 mg/kg/injection, schedule: Q01DX001 (ip), vehicle: saline with Tween-80
# [7] = endpoint: mean survival time, dose: 400.0 mg/kg/injection, schedule: Q01DX001 (ip), vehicle: saline with Tween-80
# [8] = endpoint: mean survival time, dose: 100.0 mg/kg/injection, schedule: Q04DX003 (ip), vehicle: saline with Tween-80
# [9] = endpoint: mean survival time, dose: 200.0 mg/kg/injection, schedule: Q04DX003 (ip), vehicle: saline with Tween-80
# [10] = endpoint: mean survival time, dose: 100.0 mg/kg/injection, schedule: Q04DX002 (ip), vehicle: saline with Tween-80
# [11] = endpoint: mean survival time, dose: 200.0 mg/kg/injection, schedule: Q04DX002 (ip), vehicle: saline with Tween-80
# [12] = endpoint: mean survival time, dose: 400.0 mg/kg/injection, schedule: Q04DX003 (ip), vehicle: saline with Tween-80
# [13] = endpoint: mean survival time, dose: 100.0 mg/kg/injection, schedule: Q01DX009 (ip), vehicle: saline with Tween-80
# [14] = endpoint: mean survival time, dose: 200.0 mg/kg/injection, schedule: Q01DX009 (ip), vehicle: saline with Tween-80
structure (smiles),measurement,setting,value
c1ccc(C[Se]Cc2ccccc2)cc1,T/C,"endpoint: mean survival time, dose: 6.25 mg/kg/injection, schedule: Q01DX009 (ip), vehicle: other",102 % of control
same,T/C,[1],97 % of control
same,T/C,[2],97 % of control
same,T/C,"endpoint: mean survival time, dose: 25.0 mg/kg/injection, schedule: Q04DX003 (ip), vehicle: other",101 % of control
same,T/C,"endpoint: mean survival time, dose: 50.0 mg/kg/injection, schedule: Q04DX003 (ip), vehicle: other",87 % of control
Cc1cccc[n+]1CCC(N)=O,T/C,"endpoint: mean survival time, dose: 6.25 mg/kg/injection, schedule: Q04DX003 (ip), vehicle: saline",96 % of control
same,T/C,[3],88 % of control
same,T/C,[4],91 % of control
O=C(O)C(O)(O)C(=O)O,T/C,[5],102 % of control
same,T/C,[6],102 % of control
same,T/C,[7],102 % of control
NC1CCCCC(O)CCCC1 (stereo unspecified),T/C,"endpoint: mean survival time, dose: 12.5 mg/kg/injection, schedule: Q01DX001 (ip), vehicle: saline with Tween-80",95 % of control
same,T/C,"endpoint: mean survival time, dose: 25.0 mg/kg/injection, schedule: Q01DX001 (ip), vehicle: saline with Tween-80",92 % of control
same,T/C,"endpoint: mean survival time, dose: 50.0 mg/kg/injection, schedule: Q01DX001 (ip), vehicle: saline with Tween-80",97 % of control
COc1cccc(NC2=NCCO2)c1,T/C,[8],96 % of control
same,T/C,[9],98 % of control
c1ccc2c(c1)[nH]c1c2c[n+]2c3c(cccc13)CCC2,T/C,"endpoint: mean survival time, dose: 6.25 mg/kg/injection, schedule: Q01DX001 (ip), vehicle: saline",101 % of control
same,T/C,"endpoint: mean survival time, dose: 12.5 mg/kg/injection, schedule: Q01DX001 (ip), vehicle: saline",107 % of control
CN(C)C(=O)c1ccccc1C(=O)c1ccccc1,T/C,[10],94 % of control
same,T/C,[11],87 % of control
same,T/C,"endpoint: mean survival time, dose: 400.0 mg/kg/injection, schedule: Q04DX002 (ip), vehicle: saline with Tween-80",91 % of control
CC(=O)NC(Cc1ccccc1)C(C)=O (stereo unspecified),T/C,[5],102 % of control
same,T/C,[6],98 % of control
same,T/C,[7],102 % of control
CO[C@@H]1C2=CC=CC=C[C@H]2n2c(=O)n(C)c(=O)n21,T/C,"endpoint: median survival time, dose: 37.5 mg/kg/injection, schedule: Q01DX005 (ip), vehicle: other",95 % of control
same,T/C,"endpoint: median survival time, dose: 75.0 mg/kg/injection, schedule: Q01DX005 (ip), vehicle: other",100 % of control
same,T/C,"endpoint: median survival time, dose: 150.0 mg/kg/injection, schedule: Q01DX005 (ip), vehicle: other",95 % of control
CCCCOc1cc([N+](=O)[O-])ccc1CO,T/C,[8],94 % of control
same,T/C,[9],92 % of control
same,T/C,[12],87 % of control
COC(=O)Nc1cccc(OC(=O)NC(C)(C)CC(C)(C)C)c1,T/C,"endpoint: mean survival time, dose: 25.0 mg/kg/injection, schedule: Q01DX009 (ip), vehicle: saline with Tween-80",101 % of control
same,T/C,"endpoint: mean survival time, dose: 50.0 mg/kg/injection, schedule: Q01DX009 (ip), vehicle: saline with Tween-80",101 % of control
same,T/C,[13],97 % of control
O=C(O)c1cc(Br)c(-c2c(Br)cc(C(=O)O)cc2[N+](=O)[O-])c([N+](=O)[O-])c1,T/C,[13],98 % of control
same,T/C,[8],86 % of control
same,T/C,[14],100 % of control
same,T/C,[9],94 % of control
same,T/C,[12],91 % of control
N#CC12CC3CC(CC(C3)C1)C2,T/C,"endpoint: mean survival time, dose: 5.0 mg/kg/injection, schedule: Q04DX003 (ip), vehicle: saline with Tween-80",104 % of control
same,T/C,"endpoint: mean survival time, dose: 10.0 mg/kg/injection, schedule: Q04DX003 (ip), vehicle: saline with Tween-80",104 % of control
same,T/C,"endpoint: mean survival time, dose: 20.0 mg/kg/injection, schedule: Q04DX003 (ip), vehicle: saline with Tween-80",100 % of control
O=P(OCc1ccccc1)(N(CCCl)CCCl)N1CCN(P(=O)(OCc2ccccc2)N(CCCl)CCCl)CC1 (stereo unspecified),T/C,"endpoint: mean survival time, dose: 128.0 mg/kg/injection, schedule: Q01DX Z (ip), vehicle: saline",104 % of control
same,T/C,"endpoint: mean survival time, dose: 256.0 mg/kg/injection, schedule: Q01DX Z (ip), vehicle: saline",107 % of control
same,T/C,"endpoint: mean survival time, dose: 512.0 mg/kg/injection, schedule: Q01DX Z (ip), vehicle: saline",113 % of control
O=C1C2CCN(CC2)C1CN1CCOCC1 (stereo unspecified),T/C,[3],96 % of control
same,T/C,[4],100 % of control
same,T/C,"endpoint: mean survival time, dose: 50.0 mg/kg/injection, schedule: Q04DX003 (ip), vehicle: saline",111 % of control
NC(=O)NC1CCCC1,T/C,[13],107 % of control
same,T/C,[14],107 % of control
same,T/C,"endpoint: mean survival time, dose: 400.0 mg/kg/injection, schedule: Q01DX009 (ip), vehicle: saline with Tween-80",107 % of control
COc1cc(CC#N)ccc1C,T/C,"endpoint: mean survival time, dose: 12.5 mg/kg/injection, schedule: Q04DX003 (ip), vehicle: acetone",97 % of control
same,T/C,"endpoint: mean survival time, dose: 25.0 mg/kg/injection, schedule: Q04DX003 (ip), vehicle: acetone",101 % of control
same,T/C,"endpoint: mean survival time, dose: 50.0 mg/kg/injection, schedule: Q04DX003 (ip), vehicle: acetone",102 % of control
Nc1ccccc1C(=O)O,T/C,[5],97 % of control
same,T/C,[6],100 % of control
same,T/C,[7],100 % of control
CC(C)CC(CCl)Cc1nc2ccccc2[nH]1 (stereo unspecified),T/C,[10],94 % of control
same,T/C,[11],97 % of control
CC1=NNC(=O)C1NNc1ccccc1 (stereo unspecified),T/C,[8],96 % of control
same,T/C,[9],96 % of control
same,T/C,[12],96 % of control
Cc1ncc(CO)n1C,T/C,"endpoint: mean survival time, dose: 50.0 mg/kg/injection, schedule: Q01DX009 (ip), vehicle: Klucel (hydroxypropylcellulose) (HPC)",94 % of control
same,T/C,"endpoint: mean survival time, dose: 100.0 mg/kg/injection, schedule: Q01DX009 (ip), vehicle: Klucel (hydroxypropylcellulose) (HPC)",105 % of control
same,T/C,"endpoint: mean survival time, dose: 200.0 mg/kg/injection, schedule: Q01DX009 (ip), vehicle: Klucel (hydroxypropylcellulose) (HPC)",105 % of control
N.N.N.N.O=C(O)C1OCCOCCOC(C(=O)O)C(C(=O)O)OCCOCCOC1C(=O)O.[Pt+2].[Pt+2] (stereo unspecified),T/C,"endpoint: median survival time, dose: 0.39 mg/kg/injection, schedule: Q04DX003 (ip), vehicle: saline with Tween-80",100 % of control
same,T/C,"endpoint: median survival time, dose: 0.62 mg/kg/injection, schedule: Q04DX003 (ip), vehicle: saline",98 % of control
same,T/C,"endpoint: median survival time, dose: 0.78 mg/kg/injection, schedule: Q04DX003 (ip), vehicle: saline with Tween-80",107 % of control
same,T/C,"endpoint: median survival time, dose: 0.78 mg/kg/injection, schedule: Q04DX003 (ip), vehicle: saline",100 % of control
same,T/C,"endpoint: median survival time, dose: 1.25 mg/kg/injection, schedule: Q04DX003 (ip), vehicle: saline",98 % of control
same,T/C,"endpoint: median survival time, dose: 1.56 mg/kg/injection, schedule: Q04DX003 (ip), vehicle: saline with Tween-80",107 % of control
same,T/C,"endpoint: median survival time, dose: 1.56 mg/kg/injection, schedule: Q04DX003 (ip), vehicle: saline",101 % of control
same,T/C,"endpoint: median survival time, dose: 2.5 mg/kg/injection, schedule: Q04DX003 (ip), vehicle: saline",98 % of control
same,T/C,"endpoint: median survival time, dose: 3.12 mg/kg/injection, schedule: Q04DX003 (ip), vehicle: saline with Tween-80",110 % of control
same,T/C,"endpoint: median survival time, dose: 3.12 mg/kg/injection, schedule: Q04DX003 (ip), vehicle: saline",107 % of control
same,T/C,"endpoint: median survival time, dose: 5.0 mg/kg/injection, schedule: Q04DX003 (ip), vehicle: saline",102 % of control
same,T/C,"endpoint: median survival time, dose: 6.25 mg/kg/injection, schedule: Q04DX003 (ip), vehicle: saline with Tween-80",118 % of control
same,T/C,"endpoint: median survival time, dose: 6.25 mg/kg/injection, schedule: Q04DX003 (ip), vehicle: saline",103 % of control
same,T/C,"endpoint: median survival time, dose: 10.0 mg/kg/injection, schedule: Q04DX003 (ip), vehicle: saline",111 % of control
same,T/C,"endpoint: median survival time, dose: 12.5 mg/kg/injection, schedule: Q04DX003 (ip), vehicle: saline",107 % of control
same,T/C,"endpoint: median survival time, dose: 20.0 mg/kg/injection, schedule: Q04DX003 (ip), vehicle: saline",111 % of control
same,T/C,"endpoint: median survival time, dose: 25.0 mg/kg/injection, schedule: Q04DX003 (ip), vehicle: saline with Tween-80",167 % of control
same,T/C,"endpoint: median survival time, dose: 25.0 mg/kg/injection, schedule: Q04DX003 (ip), vehicle: saline",123 % of control
CCN1/C(=C\c2ccc3cc(OC)ccc3[n+]2CC)[Se]c2ccc(OC)cc21,T/C,"endpoint: mean survival time, dose: 9.5 mg/kg/injection, schedule: Q01DX001 (ip), vehicle: other",86 % of control
O=C(Nc1cc(Cl)cc(Cl)c1)C(F)(F)F,T/C,"endpoint: mean survival time, dose: 100.0 mg/kg/injection, schedule: Q01DX001 (ip), vehicle: saline",107 % of control
same,T/C,"endpoint: mean survival time, dose: 200.0 mg/kg/injection, schedule: Q01DX001 (ip), vehicle: saline",101 % of control
same,T/C,"endpoint: mean survival time, dose: 400.0 mg/kg/injection, schedule: Q01DX001 (ip), vehicle: saline",101 % of control
O=C(CC(O)(C(F)(F)F)C(F)(F)F)c1ccc(C(=O)CC(O)(C(F)(F)F)C(F)(F)F)cc1,T/C,[1],105 % of control
same,T/C,[2],105 % of control
same,T/C,"endpoint: mean survival time, dose: 50.0 mg/kg/injection, schedule: Q01DX009 (ip), vehicle: other",113 % of control
same,T/C,"endpoint: mean survival time, dose: 100.0 mg/kg/injection, schedule: Q04DX003 (ip), vehicle: other",113 % of control
same,T/C,"endpoint: mean survival time, dose: 200.0 mg/kg/injection, schedule: Q04DX003 (ip), vehicle: other",105 % of control
